In US20110065769A1, “Transdermal delivery of ionizable drugs” (priority 2009, published 2011):

Legend:
[1] = Rat skin flux enhancement, side by side diffusion cell; type: in vitro ADME; conditions: for Skin flux enhancement by 3% PerRx (in words): 3% PerRx vs control at pH 7.4; for Skin flux, control: control formulation without PerRx; for Skin flux, control / Flux enhancement (S.F. Control + 3% PerRx)/(S.F. control) / Skin flux, control + 3% PerRx: hairless rat skin; for Skin flux, control / Skin flux, control + 3% PerRx: donor suspension pH 7.4, 37° C.; for Flux enhancement (S.F. Control + 3% PerRx)/(S.F. control): ratio of skin flux with 3% PerRx to control, pH 7.4; for Skin flux, control + 3% PerRx: with 3% PerRx enhancer
Procedure: […] The dorsal skin from a rat was excised and mounted on a side by side diffusion cell assembly with a contact area of 0.95 cm^2 and cell volume of 2.5 ml. The temperature of the diffusion cell was regulated at 37° C. The excised rat skin was clamped between the donor cell and the receiver with the dorsal stratum corneum facing the donor cell.
The model drug molecules were suspended in physiological phosphate buffer solution, of pH 7.4. The sampling volume of 1.0 ml was removed at the time point and the sampling volume was replaced with a fresh volume of the buffer solution. Skin flux of the drugs was measured in the absence or presence of the enhancer N,N-dimethylamino isobutyric acid propylene glycol mono laureate (also known as dodecanoic acid 2-(3-dimethylamethyl-propionyloxy)-propylester, or PerRx™).

[2] = Aqueous solubility with addition of 3% PerRx; type: physicochemical; conditions: 3% PerRx added to control formulation
Excerpt: So in the present work, it is believed that at pH 7.4 addition of the acetic acid functional group into polar head position will affect tremendously the physical chemical properties of molecules. […] See the results table.

| Compound | Skin flux enhancement by 3% PerRx (in words) [1] | Skin flux, control [1] [μg/cm^2-hr] | Flux enhancement (S.F. Control + 3% PerRx)/(S.F. control) [1] [X] | Skin flux, control + 3% PerRx [1] [μg/cm^2-hr] | Effect of addition of 3% PerRx on aqueous solubility [2] |
| --- | --- | --- | --- | --- | --- |
| COc1ccc2c(c1)c(CC(=O)O)c(C)n2C(=O)c1ccc(Cl)cc1 [INDOM, indomethacin] | enhanced most | 0.5 | 14 | 7.0 | – |
| O=[N+]([O-])O[C@H]1CO[C@H]2[C@@H]1OC[C@H]2O[N+](=O)[O-] [ISDN, Isosorbide di nitrate] | – | 20 | 2 | 40 | – |
| O=[N+]([O-])O[C@@H]1CO[C@H]2[C@@H]1OC[C@@H]2O [ISMN, Isosorbide mono nitrate] | enhanced most | 40 | 18 | 700 | does not affect the aqueous solubility |
